From patent EP2229935A1, “Peptide derivatives or pharmaceutically acceptable salts thereof, method for producing the same, use of said derivatives and pharmaceutical composition” (Nebolsin, Vladimir Evgenievich, priority 1997, dated 1999)

Legend:
[1] = test system: mongrel mice; assay: Acute hypobaric hypoxia model (AHBH); format: in vivo; settings: oral 4 days; for Effect in percent: lifetime relative to control; for Lifetime under hypoxic conditions (minutes): mice, 170-185 mm Hg
Protocol: The tests of determining average lifetime of animals in a closed volume and on the model of acute hypobaric hypoxia at the minimum atmospheric rarefaction (170-185 mm Hg) were used to study antihypoxic activity of the compunds of general formula (I).
Simulation of AHBH was done in a flow-through chamber at temperature 22°C. Experiments were carried out on mongrel mice with initial body mass 20 g at the minimum rarefaction 170-185 mm Hg, that corresponds to the altitude of 10500-11000 m. Lift rate was 35 m/second. Each group included 15 animals. Compounds were administered orally, lift on to altitude was performed 2 hours after the last administration.
Groups of animals: • Group 1 - intact control -administration of normal saline four times. • Groups 2 and 3 - administration of the compound III at doses 50 and 500 µg/kg for 4 days. • Group 4 - single administration of sodium oxybutyrate at a dose […].

[2] = test system: Wistar male rats; assay: Blood glucose level in rats with streptozotocine diabetes; format: in vivo; settings: for Blood glucose level: Initial level: intragastral four days
Protocol: Experiments were carried out on Wistar male rats weighing 250-300 g. Experimental diabetes was induced with single intravenous injection of streptozotocine (the Synthez cooperative enterprise at the IMBG of the Academy of Sciences of Ukraine) at a dose 42 mg/kg to rats which were preliminarily fasting for 24 hours with access to food immediately following injection. Rats were selected for experiment 2 weeks after diabetes induction with glycemia 120-180 mg/dl. Each group included 12 animals.
The compounds were intragastrally administered to intact animals and to rats with streptozotocine diabetes for four days at daily doses 50 µg/kg and 500 µg/kg in water solution at a rate of 1 ml per 200 g of body mass. Intact animals were given the compounds III and XLIV, and rats with induced diabetes were given the compound XLIV. Check blood glucose level determination was done at the day of experiment, then animals were administered the test compounds and were deprived of food. The control animals received a respective water volume. Effect was estimated by change in blood glucose level in 2 and 5 hours. Then animals received forage and 24 hours after the last drug administration blood was again sampled for examination. 0.1 ml of blood were collected from the tail vein. Glucose level was determined using the o-toluidine method.
Glucose level was calculated in mg/dl using standard glucose solutions. Then the degree of change in glucose level in relation to the initial level was determined for each animal with its expression in percent from the initial level. Final calculation was performed for each group of animals. Each group included 10 animals.

[3] = test system: Lewis pulmonary carcinoma (LLC); assay: LLC metastasizing with surgical resection of the primary tumor node, alone and with Cyclophosphane; format: in vivo, C57BL/6 female mice; settings: day 29
Protocol: An important property of the compounds is their ability to manifest pharmacological activity on the model with resection of the primary tumor node and not to lower therapeutic efficacy of respective antitumor drugs. […] Surgical resection of the primary tumor node was performed by day 13 following tumor transplantation. The test anitumor compounds were administered according to two dosage regimens:
Dosage regimen 1 - animals were administered compound III from day 1 till day 13 of experiment at a dose 500 µg/kg (group 1); Cyclophosphane was administered intraperitoneally two times before operation with 96 hour interval at a dose 100 µg/kg (group 2); combined administration of compound III and Cyclophosphane was similar to administration of substances in groups 1 and 2 (group 3). Number of metastases was calculated by day 29 of experiment;
Dosage regimen 2 - animals were administered compound III from day 14 of experiment (commencement of administration 24 hours post operation) till day 28 (group 4); Cyclophosphane was administered twice post operation with 96 hour interval at a dose 100 µg/kg (group 5); combined administration of compound III and Cyclophosphane similar to administration of substances in groups 4 and 5 (group 6). Antimetastatic efficacy of the drugs was considered by day 29 of experiment.

[4] = test system: Lewis pulmonary carcinoma (LLC); assay: LLC metastasizing: compound III substance versus tabletted dosage form; format: in vivo, C57BL/6 female mice; settings: C57BL/6 mice with LLC; oral 500 µg/kg (active basis) daily day 1-10; 24 days
Protocol: To estimate therapeutic efficacy of compound III tabletted dosage form (0.2 g tablets 6 mm in diameter comprising 17 mg substance) studies were carried out on the model of spontaneous LLC carcinoma metastasizing.
Experiments were carried out on C57BL/6 female mice weighing 20-25 g. Experimental groups included 8 animals and the control group 11 mice. Substance and dosage form of compound III were administered orally at a dose 500 µg/kg (at a rate per an active basis) daily from day 1 till day 10 of experiment. Experiment lasted for 24 days.

[5] = regimen 1, prior to operation: day 1 till day 13, 500 µg/kg
[6] = regimen 2, post operation: day 14 till day 28

O=C(O)CCCC(=O)NCCc1c[nH]cn1 [compound III, N-GLUTARYLHISTAMINE]
Effect in percent ([1]; 50 µg/kg): 105 ± 3,5% | Effect in percent ([1]; 500 µg/kg): 113 ± 5,2% | Lifetime under hypoxic conditions (minutes) ([1]; 50 µg/kg): 322,0 ± 10,9 minutes | Lifetime under hypoxic conditions (minutes) ([1]; 500 µg/kg): 345,3 ± 15,9 minutes | Blood glucose level in 2 hours, percent from the initial level ([2]; 50 µg/kg): 65.4 ± 4.3% | Blood glucose level in 5 hours, percent from the initial level ([2]; 50 µg/kg): 43.9 ± 4.9% | Blood glucose level in 24 hours, percent from the initial level ([2]; 50 µg/kg): 83.7 ± 6.6% | Blood glucose level: mg/dl in 2 hours ([2]; 50 µg/kg): 94.4 ± 5.4 mg/dL | Blood glucose level: mg/dl in 5 hours ([2]; 50 µg/kg): 64.1 ± 5.0 mg/dL | Blood glucose level: mg/dl in 24 hours ([2]; 50 µg/kg): 122.2 ± 9.2 mg/dL | Blood glucose level in 2 hours, percent from the initial level ([2]; 500 µg/kg): 67.6 ± 3.6% | Blood glucose level in 5 hours, percent from the initial level ([2]; 500 µg/kg): 44.9 ± 4.5% | Blood glucose level in 24 hours, percent from the initial level ([2]; 500 µg/kg): 98.9 ± 10.2% | Blood glucose level: mg/dl in 2 hours ([2]; 500 µg/kg): 98.8 ± 5.6 mg/dL | Blood glucose level: mg/dl in 5 hours ([2]; 500 µg/kg): 65.1 ± 1.1 mg/dL | Blood glucose level: mg/dl in 24 hours ([2]; 500 µg/kg): 143.4 ± 10.9 mg/dL | Blood glucose level: Initial level ([2]; 50 µg/kg): 146.9 ± 8.2 mg/dL | Blood glucose level: Initial level ([2]; 500 µg/kg): 145.2 ± 10.6 mg/dL | Mean number of metastases [3, 5]: 32.0 ± 11.8 | Metastasizing inhibition percent [3, 5]: 8.0% | Metastasizing rate (%) [3, 5]: 100% | Mean number of metastases [3, 6]: 28.6 ± 8.5 | Metastasizing inhibition percent [3, 6]: 22.9% | Metastasizing rate (%) [3, 6]: 100% | Mean number of metastases [4]: 22.5 ± 0.9 | Metastasizing inhibition percent [4]: 46.4% | Metastasizing rate in percent [4]: 100% | Tumor mass [4]: 12.9 ± 0.9 g
